Target: T1, p300 HAT (Homo sapiens, UniProt Q09472, DEL1529-1560/M1652G)
T1 construct: A variant of the HAT domain of p300 (residues 1287 to 1652) was expressed as a fusion; a C-terminal peptide corresponding to residues 1653-1666 of p300; made in house; host or cells: E. coli BL21(RIL)-DE3; C-terminal peptide by solid phase synthesis
T1 sequence (Q09472 with tags, fused parts or gaps DEL1529-1560/M1652G limits assumed): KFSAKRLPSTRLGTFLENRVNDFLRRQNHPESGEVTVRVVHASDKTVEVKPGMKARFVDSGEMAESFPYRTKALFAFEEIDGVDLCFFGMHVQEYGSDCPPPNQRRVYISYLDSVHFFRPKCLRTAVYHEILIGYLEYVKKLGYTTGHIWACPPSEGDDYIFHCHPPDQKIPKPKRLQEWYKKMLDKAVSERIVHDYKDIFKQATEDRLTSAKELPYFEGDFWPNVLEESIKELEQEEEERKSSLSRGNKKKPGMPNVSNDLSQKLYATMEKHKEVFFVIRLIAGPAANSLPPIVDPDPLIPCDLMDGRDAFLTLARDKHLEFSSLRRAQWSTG
Assay: coupled spectrophotometric p300 HAT assay
Assay type: biochemical
Conditions: compounds at 100 μM
Description: After completing the computational docking screen, the top 194 inhibitors were tested in a convenient spectrophotometric assay as described in Kim et al., Anal. Biochem. 280, 308 (2000). In the coupled spectrophotometric assay, the acetyltransferase reaction product CoASH becomes a substrate for alpha-ketoglutarate dehydrogenase, which converts NAD to NADH, resulting in an increase of UV absorbance at 340 nm. Screening conditions for these p300 HAT assays included substrate concentrations of 200 μM histone H4-15 peptide and 50 μM acetyl-CoA, and potential small molecule inhibitors tested at 100 μM. […] To distinguish inhibitory effects related to blockade of coupling enzyme rather than p300, assays were repeated using increased (2-fold) alpha-ketoglutarate dehydrogenase. […] The remaining compounds were then assessed in a protein aggregation-related inhibition assay as described in Feng et al., Nat. Chem. Biol. 1, 146 (2005). […] In this radioactive p300 HAT assay, ^14C transfer from ^14C-acetyl-CoA into peptide substrate is directly measured using Tris-Tricine SDSPAGE and phosphorimage analysis.
The top 194 p300 HAT inhibitor candidates identified by VLS were screened using a coupled spectrophotometric assay. In this assay, CoASH produced by the p300 reaction is used by α-ketoglutarate dehydrogenase (α-KGDH) to produce NADH, which can be monitored spectrophotometrically at 340 nm. Reactions were performed at 30° C. in […] HEPES, pH 7.9, and contained 200 μM H4-15, 200 μM TPP, 5 mM MgCl 2, 1 mM DTT, 50 μg/mL BSA, 200 μM NAD, 2.4 mM α-ketoglutarate, 200 μM acetyl-CoA, 0.1 units α-KGDH, and 100 nM p300. DMSO was kept at a constant 3.3%, and candidate compounds were screened at 100 μM. Reaction mixtures were incubated at 30° C. for 10 min prior to initiation. Reactions were initiated with addition of H4-15 and followed over the linear portion of the progress curve, which provides the initial velocity via linear regression. Percent inhibition was determined by comparison with velocity without candidate added. […] To ensure that compounds were not inhibiting α-KGDH instead of p300, compounds were assayed with 0.2 units of α-KGDH, two times the amount used in the initial screen. To ensure that compounds were not inhibiting through nonspecific aggregation, compounds were assayed in the presence of 0.01% Triton X-100.

| SMILES | % inhibition in initial screen |
| --- | --- |
| CC(=O)c1ccc(NS(=O)(=O)c2cccc(C(=O)Nc3cccc(C(=O)O)c3)c2)cc1 [Compound 5917216] | 38.6% |
| O=C(O)C1CCCN(S(=O)(=O)c2cccs2)C1 (stereo not shown) [Compound 7195131] | 0.0% |
| Cc1cc(C)c(S(=O)(=O)N2CCCC(C(=O)O)C2)c(C)c1 (stereo not shown) [Compound 7188864] | 0.0% |
| Cc1ccc(C(=O)Nc2cccc([N+](=O)[O-])c2)cc1S(=O)(=O)Nc1cccc(C(=O)O)c1 [Compound 5913514] | 0.0% |
| O=C(O)c1cccc(NC(=O)c2cc(S(=O)(=O)Nc3cccc([N+](=O)[O-])c3)ccc2Cl)c1 [Compound 5915900] | 0.0% |
| COc1ccc(CCNC(=O)c2ccccc2[N+](=O)[O-])cc1OC [Compound 5693758] | 0.0% |
| COc1ccc(C(CC(=O)O)c2ccc(OC)c(OC)c2)cc1OC [Compound 6971425] | 0.0% |
| COc1cccc(NC(=O)C(=O)NCCc2ccc(OC)c(OC)c2)c1 [Compound 5574003] | 0.0% |
| COc1cccc(CNC(=O)C(=O)Nc2ccc(C(C)C)cc2)c1 [Compound 7076620] | 0.0% |
| O=C(O)CCSCC(=O)c1ccc(NS(=O)(=O)c2ccccc2)cc1 [Compound 7112743] | 0.0% |
| Cc1nc(SCc2ccccc2)[nH]c(=O)c1CC(=O)O [Compound 6658754] | 0.0% |
| COc1ccc(N2C(=O)CC(SCC(=O)O)C2=O)cc1 (stereo not shown) [Compound 5109125] | 0.0% |
| COc1ccc(S(=O)(=O)N2CCCC(C(=O)O)C2)cc1 (stereo not shown) [Compound 7185124] | 0.0% |
| O=C(CSC1CC(=O)N(c2ccc(C(=O)O)cc2)C1=O)Nc1ccc(F)cc1 (stereo not shown) [Compound 5310308] | 0.0% |
| O=C(O)CCSc1nc2ccccc2c(=O)[nH]1 [Compound 5485989] | 0.0% |
| Cc1nc(=O)c(-c2ccccc2)c(C)n1-c1ccccc1C(=O)O [Compound 7261568] | 0.0% |
| NC(=O)c1ccccc1NC(=O)CCC(=O)O [Compound 5317891] | 0.0% |
| C=CCn1c(SCC(=O)O)nc2sc3c(c2c1=O)CCCC3 [Compound 5915918] | 0.0% |
| O=C(O)c1ccc(Br)c(S(=O)(=O)Nc2ccc(NC(=O)c3ccccc3)cc2)c1 [Compound 5913665] | 0.0% |

Source: patent US9005670B2, “Use of histone acetyltransferase inhibitors as novel anti-cancer therapies” (The Johns Hopkins University, priority 2010, dated 2015)
